Laboratory results reported in the NIST ThermoML archive (doi:10.1021/je900387e).

Test: xn = mol fraction of the nth substance listed
Details: Liquid, Pycnometric method

CCCCBr [1-bromobutane] + O=C=O
Details	mass density [kg/m3]
322.7 K, 11600 kPa, x1 = 0.0683	826
322.7 K, 11640 kPa, x1 = 0.1495	987
322.7 K, 11680 kPa, x1 = 0.0989	884
322.7 K, 11910 kPa, x1 = 0.0461	797
322.7 K, 11910 kPa, x1 = 0.0683	832
322.7 K, 11990 kPa, x1 = 0.1495	990
322.7 K, 12130 kPa, x1 = 0.0989	890
322.7 K, 12220 kPa, x1 = 0.0683	838
322.7 K, 12290 kPa, x1 = 0.1495	994
322.7 K, 12570 kPa, x1 = 0.0683	845
322.7 K, 12610 kPa, x1 = 0.0989	897
322.7 K, 12640 kPa, x1 = 0.0461	814
322.7 K, 12660 kPa, x1 = 0.1495	997
322.7 K, 12900 kPa, x1 = 0.0683	850
322.7 K, 13010 kPa, x1 = 0.1495	1000
322.7 K, 13110 kPa, x1 = 0.0989	903
322.7 K, 13210 kPa, x1 = 0.0461	826
322.7 K, 13280 kPa, x1 = 0.0683	857
322.7 K, 13490 kPa, x1 = 0.1495	1004
322.7 K, 13640 kPa, x1 = 0.0989	910
322.7 K, 13730 kPa, x1 = 0.0683	864
322.7 K, 13820 kPa, x1 = 0.1495	1008
322.7 K, 13830 kPa, x1 = 0.0461	838
322.7 K, 13960 kPa, x1 = 0.0683	867
322.7 K, 14210 kPa, x1 = 0.0989	916
322.7 K, 14230 kPa, x1 = 0.1495	1011
322.7 K, 14620 kPa, x1 = 0.1495	1015
322.7 K, 14880 kPa, x1 = 0.0989	924
322.7 K, 15120 kPa, x1 = 0.1495	1018
322.7 K, 15160 kPa, x1 = 0.0989	926
327.6 K, 8820 kPa, x1 = 0.1495	922
327.6 K, 8950 kPa, x1 = 0.1495	924
327.6 K, 9080 kPa, x1 = 0.0245	359
327.6 K, 9100 kPa, x1 = 0.0989	786
327.6 K, 9110 kPa, x1 = 0.0245	362
327.6 K, 9140 kPa, x1 = 0.1495	927
327.6 K, 9170 kPa, x1 = 0.0245	369
327.6 K, 9220 kPa, x1 = 0.0245	375
327.6 K, 9230 kPa, x1 = 0.0989	791
327.6 K, 9270 kPa, x1 = 0.0245	382
327.6 K, 9330 kPa, x1 = 0.0245	389
327.6 K, 9340 kPa, x1 = 0.1495	930
327.6 K, 9350 kPa, x1 = 0.0683	677
327.6 K, 9360 kPa, x1 = 0.0461	555
327.6 K, 9380 kPa, x1 = 0.0245	396
327.6 K, 9380 kPa, x1 = 0.0461	559
327.6 K, 9380 kPa, x1 = 0.0683	680
327.6 K, 9390 kPa, x1 = 0.0461	563
327.6 K, 9390 kPa, x1 = 0.0989	796
327.6 K, 9420 kPa, x1 = 0.0245	401
327.6 K, 9430 kPa, x1 = 0.0461	569
327.6 K, 9460 kPa, x1 = 0.0245	406
327.6 K, 9470 kPa, x1 = 0.0461	577
327.6 K, 9470 kPa, x1 = 0.0683	688
327.6 K, 9490 kPa, x1 = 0.0461	584
327.6 K, 9520 kPa, x1 = 0.0245	414
327.6 K, 9520 kPa, x1 = 0.1495	933
327.6 K, 9540 kPa, x1 = 0.0989	801
327.6 K, 9560 kPa, x1 = 0.0461	591
327.6 K, 9570 kPa, x1 = 0.0683	696
327.6 K, 9580 kPa, x1 = 0.0245	423
327.6 K, 9650 kPa, x1 = 0.0245	431
327.6 K, 9650 kPa, x1 = 0.0461	599
327.6 K, 9700 kPa, x1 = 0.0683	705
327.6 K, 9700 kPa, x1 = 0.0989	806
327.6 K, 9710 kPa, x1 = 0.0461	606
327.6 K, 9710 kPa, x1 = 0.1495	936
327.6 K, 9720 kPa, x1 = 0.0245	440
327.6 K, 9760 kPa, x1 = 0.0461	615
327.6 K, 9790 kPa, x1 = 0.0245	449
327.6 K, 9830 kPa, x1 = 0.0461	623
327.6 K, 9830 kPa, x1 = 0.0683	714
327.6 K, 9860 kPa, x1 = 0.0245	459
327.6 K, 9890 kPa, x1 = 0.0989	811
327.6 K, 9890 kPa, x1 = 0.1495	939
327.6 K, 9920 kPa, x1 = 0.0461	631
327.6 K, 9950 kPa, x1 = 0.0245	469
327.6 K, 10000 kPa, x1 = 0.0683	723
327.6 K, 10010 kPa, x1 = 0.0461	640
327.6 K, 10030 kPa, x1 = 0.0245	480
327.6 K, 10050 kPa, x1 = 0.0245	484
327.6 K, 10060 kPa, x1 = 0.0245	486
327.6 K, 10070 kPa, x1 = 0.1495	942
327.6 K, 10080 kPa, x1 = 0.0989	817
327.6 K, 10120 kPa, x1 = 0.0461	649
327.6 K, 10190 kPa, x1 = 0.0683	733
327.6 K, 10240 kPa, x1 = 0.0461	658
327.6 K, 10290 kPa, x1 = 0.0989	822
327.6 K, 10310 kPa, x1 = 0.1495	945
327.6 K, 10360 kPa, x1 = 0.0461	668
327.6 K, 10380 kPa, x1 = 0.0683	742
327.6 K, 10500 kPa, x1 = 0.0461	678
327.6 K, 10510 kPa, x1 = 0.0989	828
327.6 K, 10560 kPa, x1 = 0.1495	949
327.6 K, 10630 kPa, x1 = 0.0683	752
327.6 K, 10660 kPa, x1 = 0.0461	688
327.6 K, 10730 kPa, x1 = 0.0989	833
327.6 K, 10780 kPa, x1 = 0.1495	951
327.6 K, 10840 kPa, x1 = 0.0461	698
327.6 K, 10920 kPa, x1 = 0.0683	762
327.6 K, 10990 kPa, x1 = 0.0461	706
327.6 K, 11000 kPa, x1 = 0.1495	954
327.6 K, 11060 kPa, x1 = 0.0989	839
327.6 K, 11240 kPa, x1 = 0.0683	773
327.6 K, 11280 kPa, x1 = 0.1495	958
327.6 K, 11310 kPa, x1 = 0.0989	845
327.6 K, 11520 kPa, x1 = 0.1495	961
327.6 K, 11590 kPa, x1 = 0.0683	783
327.6 K, 11620 kPa, x1 = 0.0989	851
327.6 K, 11790 kPa, x1 = 0.1495	964
327.6 K, 11960 kPa, x1 = 0.0989	857
327.6 K, 11990 kPa, x1 = 0.0683	794
327.6 K, 12050 kPa, x1 = 0.1495	967
327.6 K, 12310 kPa, x1 = 0.0989	862
327.6 K, 12370 kPa, x1 = 0.1495	970
327.6 K, 12460 kPa, x1 = 0.0683	805
327.6 K, 12670 kPa, x1 = 0.1495	974
327.6 K, 12710 kPa, x1 = 0.0989	869
327.6 K, 13000 kPa, x1 = 0.1495	977
327.6 K, 13040 kPa, x1 = 0.0683	817
327.6 K, 13110 kPa, x1 = 0.0989	875
327.6 K, 13350 kPa, x1 = 0.1495	981
327.6 K, 13520 kPa, x1 = 0.0989	880
327.6 K, 13650 kPa, x1 = 0.0683	829
327.6 K, 13660 kPa, x1 = 0.1495	984
327.6 K, 13960 kPa, x1 = 0.1495	987
327.6 K, 13980 kPa, x1 = 0.0989	887
327.6 K, 13990 kPa, x1 = 0.0683	835
327.6 K, 14320 kPa, x1 = 0.1495	990
327.6 K, 14470 kPa, x1 = 0.0989	893
327.6 K, 14690 kPa, x1 = 0.1495	993
327.6 K, 14740 kPa, x1 = 0.0683	848
327.6 K, 14960 kPa, x1 = 0.0683	851
327.6 K, 15000 kPa, x1 = 0.0989	900
327.6 K, 15090 kPa, x1 = 0.1495	997
332.4 K, 9170 kPa, x1 = 0.0245	317
332.4 K, 9200 kPa, x1 = 0.0245	319
332.4 K, 9250 kPa, x1 = 0.0245	323
332.4 K, 9300 kPa, x1 = 0.0245	328
332.4 K, 9350 kPa, x1 = 0.0245	332
332.4 K, 9350 kPa, x1 = 0.1495	896
332.4 K, 9400 kPa, x1 = 0.0245	336
332.4 K, 9440 kPa, x1 = 0.0245	340
332.4 K, 9490 kPa, x1 = 0.0245	345
332.4 K, 9540 kPa, x1 = 0.0245	349
332.4 K, 9580 kPa, x1 = 0.0245	354
332.4 K, 9580 kPa, x1 = 0.1495	900
332.4 K, 9640 kPa, x1 = 0.0245	359
332.4 K, 9670 kPa, x1 = 0.0989	750
332.4 K, 9690 kPa, x1 = 0.0245	364
332.4 K, 9740 kPa, x1 = 0.0245	369
332.4 K, 9760 kPa, x1 = 0.1495	903
332.4 K, 9780 kPa, x1 = 0.0989	755
332.4 K, 9790 kPa, x1 = 0.0245	375
332.4 K, 9810 kPa, x1 = 0.0461	512
332.4 K, 9830 kPa, x1 = 0.0461	516
332.4 K, 9840 kPa, x1 = 0.0245	380
332.4 K, 9840 kPa, x1 = 0.0683	622
332.4 K, 9870 kPa, x1 = 0.0683	625
332.4 K, 9890 kPa, x1 = 0.0461	521
332.4 K, 9890 kPa, x1 = 0.0989	759
332.4 K, 9890 kPa, x1 = 0.1495	906
332.4 K, 9900 kPa, x1 = 0.0245	386
332.4 K, 9900 kPa, x1 = 0.0683	629
332.4 K, 9930 kPa, x1 = 0.0461	527
332.4 K, 9950 kPa, x1 = 0.0245	392
332.4 K, 9960 kPa, x1 = 0.0683	636
332.4 K, 9970 kPa, x1 = 0.0461	533
332.4 K, 10000 kPa, x1 = 0.0683	640
332.4 K, 10000 kPa, x1 = 0.0989	764
332.4 K, 10010 kPa, x1 = 0.0245	398
332.4 K, 10020 kPa, x1 = 0.0245	399
332.4 K, 10020 kPa, x1 = 0.0461	539
332.4 K, 10040 kPa, x1 = 0.1495	909
332.4 K, 10060 kPa, x1 = 0.0461	546
332.4 K, 10070 kPa, x1 = 0.0683	647
332.4 K, 10110 kPa, x1 = 0.0989	769
332.4 K, 10120 kPa, x1 = 0.0461	552
332.4 K, 10150 kPa, x1 = 0.0683	654
332.4 K, 10180 kPa, x1 = 0.0461	559
332.4 K, 10190 kPa, x1 = 0.1495	912
332.4 K, 10240 kPa, x1 = 0.0461	566
332.4 K, 10240 kPa, x1 = 0.0683	662
332.4 K, 10240 kPa, x1 = 0.0989	774
332.4 K, 10300 kPa, x1 = 0.0461	573
332.4 K, 10340 kPa, x1 = 0.0683	670
332.4 K, 10370 kPa, x1 = 0.0461	580
332.4 K, 10370 kPa, x1 = 0.0989	778
